In ChEMBL document CHEMBL1128617, “4-Deoxy-4-aminoavermectins with potent broad spectrum antiparasitic activities” (1995):

Assays:
Format in all cases: functional
[1] = tested on: Oesophagostomum columbianum; test: Antiparasitic activity against Oesophagostomum columbianum at dose of 0.10 mg/kg in sheep anthelmintic test; details: dose 0.1 mg/kg
[2] = tested on: Teladorsagia circumcincta; test: Antiparasitic activity against Ostertagia circumcincta at dose of 0.10 mg/kg in sheep anthelmintic test; details: dose 0.1 mg/kg
Haemonchus contortus [3] = test: Antiparasitic activity against Haemonchus contortus at dose of 0.10 mg/kg in sheep anthelmintic test; details: dose 0.1 mg/kg
Cooperia [4] = test: Antiparasitic activity against Cooperia […] at dose of 0.10 mg/kg in sheep anthelmintic test; details: dose 0.1 mg/kg
Trichostrongylus axei [5] = test: Antiparasitic activity against Trichostrongylus axei at dose of 0.10 mg/kg in sheep anthelmintic test; details: dose 0.1 mg/kg
[6] = tested on: Trichostrongylus colubriformis; test: Antiparasitic activity against Trichostrongylus colubriformis at dose of 0.10 mg/kg in sheep anthelmintic test; details: dose 0.1 mg/kg
Artemia = test: In vitro antiparasitic activity in brine shrimp assay
[7] = tested on: Oesophagostomum columbianum; test: Antiparasitic activity against Oesophagostomum columbianum at dose of 0.05 mg/kg in sheep anthelmintic test
[8] = tested on: Teladorsagia circumcincta; test: Antiparasitic activity against Ostertagia circumcincta at dose of 0.05 mg/kg in sheep anthelmintic test
Trichostrongylus axei [9] = test: Antiparasitic activity against Trichostrongylus axei at dose of 0.05 mg/kg in sheep anthelmintic test
Cooperia oncophora = test: Antiparasitic activity against Cooperia oncophora at dose of 0.05 mg/kg in sheep anthelmintic test
Haemonchus contortus [10] = test: Antiparasitic activity against Haemonchus contortus at dose of 0.05 mg/kg in sheep anthelmintic test
[11] = tested on: Trichostrongylus colubriformis; test: Antiparasitic activity against Trichostrongylus colubriformis at dose of 0.05 mg/kg in sheep anthelmintic test
Cooperia [12] = test: Antiparasitic activity against Cooperia […] at dose of 0.05 mg/kg in sheep anthelmintic test

SMILES | Reduction [1] [%] | Reduction [2] [%] | Reduction (Haemonchus contortus [3]) [%] | Reduction (Cooperia [4]) [%] | Reduction (Trichostrongylus axei [5]) [%] | Reduction [6] [%] | IC100 (Artemia) [ng/mL] | Reduction [7] [%] | Reduction [8] [%] | Reduction (Trichostrongylus axei [9]) [%] | Reduction (Cooperia oncophora) [%] | Reduction (Haemonchus contortus [10]) [%] | Reduction [11] [%] | Reduction (Cooperia [12]) [%]
CCC(C)[C@H]1O[C@]2(C=C[C@@H]1C)C[C@@H]1C[C@@H](C/C=C(\C)[C@@H](O[C@H]3C[C@H](OC)[C@H](NC(C)=O)[C@H](C)O3)[C@@H](C)/C=C/C=C3\CO[C@@H]4[C@H](O)C(C)=C[C@@H](C(=O)O1)[C@]34O)O2 (stereo not given in full) | 76 | >95 | <50 | <50 | >95 | >95 | 1300 |  |  |  |  |  |  | 
CCC(C)[C@H]1O[C@]2(CC[C@@H]1C)C[C@@H]1C[C@@H](C/C=C(\C)[C@@H](O[C@H]3C[C@H](OC)[C@@H](O[C@H]4C[C@H](OC)[C@H](N)[C@H](C)O4)[C@H](C)O3)[C@@H](C)/C=C/C=C3\CO[C@@H]4[C@H](O)C(C)=C[C@@H](C(=O)O1)[C@]34O)O2 (stereo not given in full) | >95 | >95 | >95 | >95 | <50 | <50 | 1730 |  |  |  |  |  |  | 
CCC(=O)N[C@@H]1[C@H](C)O[C@@H](O[C@H]2[C@H](C)O[C@@H](O[C@@H]3/C(C)=C/C[C@@H]4C[C@@H](C[C@]5(C=C[C@H](C)[C@@H](C(C)CC)O5)O4)OC(=O)[C@@H]4C=C(C)[C@@H](O)[C@H]5OC/C(=C\C=C\[C@@H]3C)[C@]54O)C[C@@H]2OC)C[C@@H]1OC (stereo not given in full) |  |  |  |  |  |  | 430 | >95 | >95 | >95 | >95 | >95 | >95 | >95
CCC(C)[C@H]1O[C@]2(C=C[C@@H]1C)C[C@@H]1C[C@@H](C/C=C(\C)[C@@H](O[C@H]3C[C@H](OC)[C@@H](O[C@H]4C[C@H](OC)[C@H](NC(=O)C(F)(F)F)[C@H](C)O4)[C@H](C)O3)[C@@H](C)/C=C/C=C3\CO[C@@H]4[C@H](O)C(C)=C[C@@H](C(=O)O1)[C@]34O)O2 (stereo not given in full) | >95 | <50 | >95 | >95 | >95 | >95 | 27800 |  |  |  |  |  |  | 
CCCCCCCCN[C@@H]1[C@H](C)O[C@@H](O[C@H]2[C@H](C)O[C@@H](O[C@@H]3/C(C)=C/C[C@@H]4C[C@@H](C[C@]5(C=C[C@H](C)[C@@H](C(C)CC)O5)O4)OC(=O)[C@@H]4C=C(C)[C@@H](O)[C@H]5OC/C(=C\C=C\[C@@H]3C)[C@]54O)C[C@@H]2OC)C[C@@H]1OC (stereo not given in full) | <50 | <50 | <50 | <50 | <50 | <50 | >55500 |  |  |  |  |  |  | 
CCC(C)[C@H]1O[C@]2(CC[C@@H]1C)C[C@@H]1C[C@@H](C/C=C(\C)[C@@H](O[C@H]3C[C@H](OC)[C@@H](O[C@H]4C[C@H](OC)[C@H](NC(=O)COC)[C@H](C)O4)[C@H](C)O3)[C@@H](C)/C=C/C=C3\CO[C@@H]4[C@H](O)C(C)=C[C@@H](C(=O)O1)[C@]34O)O2 (stereo not given in full) | >95 | >95 | >95 | >95 | >95 | 76 | 870 |  |  |  |  |  |  | 
CCC(C)[C@H]1O[C@]2(C=C[C@@H]1C)C[C@@H]1C[C@@H](C/C=C(\C)[C@@H](O[C@H]3C[C@H](OC)[C@@H](O[C@H]4C[C@H](OC)[C@H](NCCO)[C@H](C)O4)[C@H](C)O3)[C@@H](C)/C=C/C=C3\CO[C@@H]4[C@H](O)C(C)=C[C@@H](C(=O)O1)[C@]34O)O2 (stereo not given in full) | >95 | >95 | >95 | >95 | <50 | 76 | 3470 |  |  |  |  |  |  | 
CCC(C)[C@H]1O[C@]2(C=C[C@@H]1C)C[C@@H]1C[C@@H](C/C=C(\C)[C@@H](O[C@H]3C[C@H](OC)[C@@H](O[C@H]4C[C@H](OC)[C@@H](NC(C)=O)[C@H](C)O4)[C@H](C)O3)[C@@H](C)/C=C/C=C3\CO[C@@H]4[C@H](O)C(C)=C[C@@H](C(=O)O1)[C@]34O)O2 (stereo not given in full) |  |  |  |  |  |  | 325 | >95 | <50 | >95 | >95 | >95 | <50 | 76
CCC(C)[C@H]1O[C@]2(C=C[C@@H]1C)C[C@@H]1C[C@@H](C/C=C(\C)[C@@H](O[C@H]3C[C@H](OC)[C@@H](O[C@H]4C[C@H](OC)[C@H](NC=O)[C@H](C)O4)[C@H](C)O3)[C@@H](C)/C=C/C=C3\CO[C@@H]4[C@H](O)C(C)=C[C@@H](C(=O)O1)[C@]34O)O2 (stereo not given in full) |  |  |  |  |  |  | 380 | >95 | >95 | >95 | >95 | >95 | >95 | >95
CCC(C)[C@H]1O[C@]2(C=C[C@@H]1C)C[C@@H]1C[C@@H](C/C=C(\C)[C@@H](O[C@H]3C[C@H](OC)[C@@H](O[C@H]4C[C@H](OC)[C@H](NC)[C@H](C)O4)[C@H](C)O3)[C@@H](C)/C=C/C=C3\CO[C@@H]4[C@H](O)C(C)=C[C@@H](C(=O)O1)[C@]34O)O2 (stereo not given in full) | >95 | >95 | >95 | >95 | >95 | 76 | 1730 |  |  |  |  |  |  | 
CCC(C)[C@H]1O[C@]2(C=C[C@@H]1C)C[C@@H]1C[C@@H](C/C=C(\C)[C@@H](O[C@H]3C[C@H](OC)[C@@H](O[C@H]4C[C@H](OC)[C@@H](O)[C@H](C)O4)[C@H](C)O3)[C@@H](C)/C=C/C=C3\CO[C@@H]4[C@H](O)C(C)=C[C@@H](C(=O)O1)[C@]34O)O2 (stereo not given in full) [AVERMECTIN] | >95 | >95 | >95 | >95 | >95 | >95 | 296 |  |  |  |  |  |  | 
CCC(C)[C@H]1O[C@]2(C=C[C@@H]1C)C[C@@H]1C[C@@H](C/C=C(\C)[C@@H](O[C@H]3C[C@H](OC)[C@@H](O[C@H]4C[C@H](OC)[C@H](N)[C@H](C)O4)[C@H](C)O3)[C@@H](C)/C=C/C=C3\CO[C@@H]4[C@H](O)C(C)=C[C@@H](C(=O)O1)[C@]34O)O2 (stereo not given in full) | >95 | >95 | >95 | >95 | <50 | 51 | 1730 |  |  |  |  |  |  | 
CCC(C)[C@H]1O[C@]2(C=C[C@@H]1C)C[C@@H]1C[C@@H](C/C=C(\C)[C@@H](O[C@H]3C[C@H](OC)[C@@H](O[C@H]4C[C@H](OC)[C@@H](N)[C@H](C)O4)[C@H](C)O3)[C@@H](C)/C=C/C=C3\CO[C@@H]4[C@H](O)C(C)=C[C@@H](C(=O)O1)[C@]34O)O2 (stereo not given in full) | >95 | >95 | >95 | >95 | <50 | <50 | 2600 |  |  |  |  |  |  | 
CCC(C)[C@H]1O[C@]2(C=C[C@@H]1C)C[C@@H]1C[C@@H](C/C=C(\C)[C@@H](O[C@H]3C[C@H](OC)[C@@H](O[C@H]4C[C@H](OC)[C@H](NC(=O)NC)[C@H](C)O4)[C@H](C)O3)[C@@H](C)/C=C/C=C3\CO[C@@H]4[C@H](O)C(C)=C[C@@H](C(=O)O1)[C@]34O)O2 (stereo not given in full) | >95 | 51 | >95 | >95 | >95 | 76 | 430 |  |  |  |  |  |  | 
CCC(C)[C@H]1O[C@]2(C=C[C@@H]1C)C[C@@H]1C[C@@H](C/C=C(\C)[C@@H](O[C@H]3C[C@H](OC)[C@@H](O[C@H]4C[C@H](OC)[C@H](NC(=O)C(C)(C)C)[C@H](C)O4)[C@H](C)O3)[C@@H](C)/C=C/C=C3\CO[C@@H]4[C@H](O)C(C)=C[C@@H](C(=O)O1)[C@]34O)O2 (stereo not given in full) | >95 | 76 | >95 | >95 | 76 | 76 | 1730 |  |  |  |  |  |  | 
CCC(C)[C@H]1O[C@]2(C=C[C@@H]1C)C[C@@H]1C[C@@H](C/C=C(\C)[C@@H](O[C@H]3C[C@H](OC)[C@@H](O[C@H]4C[C@H](OC)[C@H](NC(C)=O)[C@H](C)O4)[C@H](C)O3)[C@@H](C)/C=C/C=C3\CO[C@@H]4[C@H](O)C(C)=C[C@@H](C(=O)O1)[C@]34O)O2 (stereo not given in full) |  |  |  |  |  |  | 540 | >95 | >95 | >95 |  | >95 | >95 | >95
